Drawing on BindingDB's records for PubMed 30559935 (University of Nottingham), this text covers IC50 for 1 molecule.

Usually IC50 stands for the point on the concentration scale where inhibition reaches its midpoint.

The nature of assay [1]: Inhibition of EZH2 in human EPN8 cells assessed as reduction in cell viability incubated for 120 hrs by MTT assay. (Tetrazolium assays rely on reduction of a dye to a coloured formazan, in cell work by metabolically active cells.)
A short description of assay [2]: Inhibition of EZH2 in human DKFZ-EP1 cells assessed as reduction in cell viability incubated for 120 hrs by MTT assay.
Assay [3] in a line: Inhibition of EZH2 in human BXD-1425EPN cells assessed as reduction in cell viability incubated for 120 hrs by MTT assay.

For `CCCc1cc(C)[nH]c(=O)c1CNC(=O)c1cc(-c2ccnc(N3CCN(C)CC3)c2)cc2c1cnn2C(C)C`, the IC50 is 20 µM in assay [1], 20 µM in assay [2] and 16 µM in assay [3].
